Patent US20250171437A1 (Agios Pharmaceuticals,Inc., priority 2022, published 2025)

Target: T1, human PAH with the R408W mutation (A375 R408W cells) (Homo sapiens, UniProt P00439, R408W)
T1 construct: expressed in transfected cells
T1 sequence (P00439 1-452 R408W): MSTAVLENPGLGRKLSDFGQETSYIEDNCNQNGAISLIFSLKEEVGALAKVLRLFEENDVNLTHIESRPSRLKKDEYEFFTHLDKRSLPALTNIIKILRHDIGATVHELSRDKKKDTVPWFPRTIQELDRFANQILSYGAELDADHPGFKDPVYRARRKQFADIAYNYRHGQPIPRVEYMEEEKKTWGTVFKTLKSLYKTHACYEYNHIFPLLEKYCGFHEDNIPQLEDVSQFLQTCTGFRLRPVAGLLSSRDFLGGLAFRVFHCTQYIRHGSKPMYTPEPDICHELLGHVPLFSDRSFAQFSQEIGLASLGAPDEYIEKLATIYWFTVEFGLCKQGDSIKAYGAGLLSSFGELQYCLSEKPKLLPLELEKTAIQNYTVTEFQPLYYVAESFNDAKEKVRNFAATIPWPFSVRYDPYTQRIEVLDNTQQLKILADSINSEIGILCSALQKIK
Assay: Cell Based Phenylalanine Flux Assay
Details: A375 R408W cells; 24 hrs with compound, then 20 μM sepiapterin and 800 μM 13C9,15N-Phenylalanine for 4 hours; 13C-Tyrosine by LC-MS; average where tested multiple times
Method in brief: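 AC50 is derived from LC-MS of 13C-tyrosine in the media after a 4 h pulse of 800 μM 13C9,15N-phenylalanine plus 20 μM sepiapterin. The A375 R408W PAH cells had received duplicate 10-point, 2-fold compound dilutions (0.5% DMSO) for 24 h beforehand.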

Compound	AC50
CC(C)(O)c1nc(C(F)F)c(C(=O)N2CCc3[nH]cnc3[C@H]2c2nc3c(C(F)(F)F)cccc3o2)o1 [Example 463, (S)-(4-(difluoromethyl)-2-(2-hydroxypropan-2-yl)oxazol-5-yl)(4-(4-(trifluoromethyl)benzo[d]oxazol-2-yl)-6,7-dihydro-1H-imidazo[4,5-c]pyridin-5(4H)-yl)methanone]	≤ 500 nM
CC(C)(O)c1nc(C(F)F)c(C(=O)N2CCc3[nH]cnc3[C@@H]2c2nc3c(C(F)(F)F)cccc3o2)o1 [Example 464, (R)-(4-(difluoromethyl)-2-(2-hydroxypropan-2-yl)oxazol-5-yl)(4-(4-(trifluoromethyl)benzo[d]oxazol-2-yl)-6,7-dihydro-1H-imidazo[4,5-c]pyridin-5(4H)-yl)methanone]	500 to 1000 nM
Cn1nc(Br)nc1C(=O)N1CCc2[nH]cnc2[C@H]1c1nc2c(F)cccc2o1 [Example 471, (S)-(3-bromo-1-methyl-1H-1,2,4-triazol-5-yl)(4-(4-fluorobenzo[d]oxazol-2-yl)-6,7-dihydro-1H-imidazo[4,5-c]pyridin-5(4H)-yl)methanone]	500 to 1000 nM
Cn1nc(Br)nc1C(=O)N1CCc2[nH]cnc2[C@@H]1c1nc2c(F)cccc2o1 [Example 472, (R)-(3-bromo-1-methyl-1H-1,2,4-triazol-5-yl)(4-(4-fluorobenzo[d]oxazol-2-yl)-6,7-dihydro-1H-imidazo[4,5-c]pyridin-5(4H)-yl)methanone]	1000 to 5000 nM
Cn1nc(Br)nc1C(=O)N1CCc2[nH]cnc2[C@H]1c1nc2cccc(F)c2o1 [Example 473, (S)-(3-bromo-1-methyl-1H-1,2,4-triazol-5-yl)(4-(7-fluorobenzo[d]oxazol-2-yl)-6,7-dihydro-1H-imidazo[4,5-c]pyridin-5(4H)-yl)methanone]	500 to 1000 nM
Cn1nc(Br)nc1C(=O)N1CCc2[nH]cnc2[C@@H]1c1nc2cccc(F)c2o1 [Example 474, (R)-(3-bromo-1-methyl-1H-1,2,4-triazol-5-yl)(4-(7-fluorobenzo[d]oxazol-2-yl)-6,7-dihydro-1H-imidazo[4,5-c]pyridin-5(4H)-yl)methanone]	1000 to 5000 nM
CN1CCN(c2ccc3c(C(=O)N4CCc5[nH]cnc5[C@H]4c4nc5c(F)cccc5o4)cnn3c2)CC1 [Example 475, (S)-(4-(4-fluorobenzo[d]oxazol-2-yl)-6,7-dihydro-1H-imidazo[4,5-c]pyridin-5(4H)-yl)(6-(4-methylpiperazin-1-yl)pyrazolo[1,5-a]pyridin-3-yl)methanone]	≤ 500 nM
CN1CCN(c2ccc3c(C(=O)N4CCc5[nH]cnc5[C@@H]4c4nc5c(F)cccc5o4)cnn3c2)CC1 [Example 476, (R)-(4-(4-fluorobenzo[d]oxazol-2-yl)-6,7-dihydro-1H-imidazo[4,5-c]pyridin-5(4H)-yl)(6-(4-methylpiperazin-1-yl)pyrazolo[1,5-a]pyridin-3-yl)methanone]	1000 to 5000 nM
O=C(c1cnn2cc(N3CCC(F)CC3)ccc12)N1CCc2[nH]cnc2[C@H]1c1nc2c(F)cccc2o1 [Example 477, (S)-(4-(4-fluorobenzo[d]oxazol-2-yl)-6,7-dihydro-1H-imidazo[4,5-c]pyridin-5(4H)-yl)(6-(4-fluoropiperidin-1-yl)pyrazolo[1,5-a]pyridin-3-yl)methanone]	≤ 500 nM
O=C(c1cnn2cc(N3CCC(F)CC3)ccc12)N1CCc2[nH]cnc2[C@@H]1c1nc2c(F)cccc2o1 [Example 478, (R)-(4-(4-fluorobenzo[d]oxazol-2-yl)-6,7-dihydro-1H-imidazo[4,5-c]pyridin-5(4H)-yl)(6-(4-fluoropiperidin-1-yl)pyrazolo[1,5-a]pyridin-3-yl)methanone]	≥ 5000 nM
Cc1cccc2oc([C@H]3c4nc[nH]c4CCN3C(=O)c3nnc(-c4cnn(C)c4)o3)nc12 [Example 479, (R)-(5-(1-methyl-1H-pyrazol-4-yl)-1,3,4-oxadiazol-2-yl)(4-(4-methylbenzo[d]oxazol-2-yl)-6,7-dihydro-1H-imidazo[4,5-c]pyridin-5(4H)-yl)methanone]	500 to 1000 nM
Cc1cccc2oc([C@@H]3c4nc[nH]c4CCN3C(=O)c3nnc(-c4cnn(C)c4)o3)nc12 [Example 480, (S)-(5-(1-methyl-1H-pyrazol-4-yl)-1,3,4-oxadiazol-2-yl)(4-(4-methylbenzo[d]oxazol-2-yl)-6,7-dihydro-1H-imidazo[4,5-c]pyridin-5(4H)-yl)methanone]	≤ 500 nM
Cc1cccc2oc([C@H]3c4nc[nH]c4CCN3C(=O)c3nnc(-c4ccccn4)o3)nc12 [Example 481, (R)-(4-(4-methylbenzo[d]oxazol-2-yl)-6,7-dihydro-1H-imidazo[4,5-c]pyridin-5(4H)-yl)(5-(pyridin-2-yl)-1,3,4-oxadiazol-2-yl)methanone]	500 to 1000 nM
Cc1cccc2oc([C@@H]3c4nc[nH]c4CCN3C(=O)c3nnc(-c4ccccn4)o3)nc12 [Example 482, (S)-(4-(4-methylbenzo[d]oxazol-2-yl)-6,7-dihydro-1H-imidazo[4,5-c]pyridin-5(4H)-yl)(5-(pyridin-2-yl)-1,3,4-oxadiazol-2-yl)methanone]	≤ 500 nM
O=C(c1cnco1)N1CCc2[nH]cnc2[C@H]1c1nc2c(F)ccc(F)c2o1 [Example 483, (S)-(4-(4,7-difluorobenzo[d]oxazol-2-yl)-6,7-dihydro-1H-imidazo[4,5-c]pyridin-5(4H)-yl)(oxazol-5-yl)methanone]	500 to 1000 nM
O=C(c1cnco1)N1CCc2[nH]cnc2[C@@H]1c1nc2c(F)ccc(F)c2o1 [Example 484, (R)-(4-(4,7-difluorobenzo[d]oxazol-2-yl)-6,7-dihydro-1H-imidazo[4,5-c]pyridin-5(4H)-yl)(oxazol-5-yl)methanone]	1000 to 5000 nM
Cn1nc(C(F)F)nc1C(=O)N1CCc2[nH]cnc2[C@@H]1c1nc2c(F)ccc(F)c2o1 [Example 485, (R)-(4-(4,7-difluorobenzo[d]oxazol-2-yl)-6,7-dihydro-1H-imidazo[4,5-c]pyridin-5(4H)-yl)(3-(difluoromethyl)-1-methyl-1H-1,2,4-triazol-5-yl)methanone]	1000 to 5000 nM

Other lines, results leading:

AC50	Compound
≤ 500 nM	CC(C)(O)c1nc(C(F)F)c(C(=O)N2CCc3[nH]cnc3[C@H]2c2nc3cccc(Br)c3o2)o1 [Example 460, (S)-(4-(7-bromobenzo[d]oxazol-2-yl)-6,7-dihydro-1H-imidazo[4,5-c]pyridin-5(4H)-yl)(4-(difluoromethyl)-2-(2-hydroxypropan-2-yl)oxazol-5-yl)methanone]
≤ 500 nM	O=C(c1ocnc1C(F)F)N1CCc2[nH]cnc2[C@H]1c1nc2cccc(Br)c2o1 [Example 461, (S)-(4-(7-bromobenzo[d]oxazol-2-yl)-6,7-dihydro-1H-imidazo[4,5-c]pyridin-5(4H)-yl)(4-(difluoromethyl)oxazol-5-yl)methanone]
≤ 500 nM	O=C(c1ocnc1C(F)F)N1CCc2[nH]cnc2[C@@H]1c1nc2cccc(Br)c2o1 [Example 462, (R)-(4-(7-bromobenzo[d]oxazol-2-yl)-6,7-dihydro-1H-imidazo[4,5-c]pyridin-5(4H)-yl)(4-(difluoromethyl)oxazol-5-yl)methanone]
≤ 500 nM	O=C(c1ocnc1C(F)F)N1CCc2[nH]cnc2[C@H]1c1nc2c(C(F)(F)F)cccc2o1 [Example 465, (S)-(4-(difluoromethyl)oxazol-5-yl)(4-(4-(trifluoromethyl)benzo[d]oxazol-2-yl)-6,7-dihydro-1H-imidazo[4,5-c]pyridin-5(4H)-yl)methanone]
500 to 1000 nM	O=C(c1ocnc1C(F)F)N1CCc2[nH]cnc2[C@@H]1c1nc2c(C(F)(F)F)cccc2o1 [Example 466, (R)-(4-(difluoromethyl)oxazol-5-yl)(4-(4-(trifluoromethyl)benzo[d]oxazol-2-yl)-6,7-dihydro-1H-imidazo[4,5-c]pyridin-5(4H)-yl)methanone]
≤ 500 nM	O=C(c1ocnc1C(F)F)N1CCc2[nH]cnc2[C@H]1c1nc2ccccc2o1 [Example 467, (S)-(4-(benzo[d]oxazol-2-yl)-6,7-dihydro-1H-imidazo[4,5-c]pyridin-5(4H)-yl)(4-(difluoromethyl)oxazol-5-yl)methanone]
500 to 1000 nM	O=C(c1ocnc1C(F)F)N1CCc2[nH]cnc2[C@@H]1c1nc2ccccc2o1 [Example 468, (R)-(4-(benzo[d]oxazol-2-yl)-6,7-dihydro-1H-imidazo[4,5-c]pyridin-5(4H)-yl)(4-(difluoromethyl)oxazol-5-yl)methanone]
1000 to 5000 nM	CC(C)(O)c1nc(C(F)F)c(C(=O)N2CCc3[nH]cnc3[C@@H]2c2nc3ccccc3o2)o1 [Example 469, (R)-(4-(benzo[d]oxazol-2-yl)-6,7-dihydro-1H-imidazo[4,5-c]pyridin-5(4H)-yl)(4-(difluoromethyl)-2-(2-hydroxypropan-2-yl)oxazol-5-yl)methanone]
≤ 500 nM	CC(C)(O)c1nc(C(F)F)c(C(=O)N2CCc3[nH]cnc3[C@H]2c2nc3ccccc3o2)o1 [Example 470, (S)-(4-(benzo[d]oxazol-2-yl)-6,7-dihydro-1H-imidazo[4,5-c]pyridin-5(4H)-yl)(4-(difluoromethyl)-2-(2-hydroxypropan-2-yl)oxazol-5-yl)methanone]
